Laboratory results taken from patent publication US11306122B2, “Compositions and methods of inhibiting the binding of plasma IgG autoantibodies to serotonin 2A receptor” (United States Government As Represented By The Department …, priority 2019, dated 2022).
Numbered stars: 1 amine (or outer) side, 2 acyl side, 3 side chain; on linkers, the order of the positions; unused ones are H or OH. Bridge positions count the residues as written; N and C are the ends. Square brackets hold non-standard residues; d marks the D form. Peptide text beside a SMILES is read from it. X1 = CC(=O)NC(C(=O)OC(C(C)C)C(N[*:1])C(=O)[*:2])C(O)C(C)C; PhLac = O=C(O)[CH](O)Cc1ccccc1; NMeT = CN[CH](C(=O)O)[CH](C)O; NMeA = CN[CH](C)C(=O)O; NMeDha = C=C(NC)C(=O)O

Legend:
[1] = tested on: N2A mouse neuroblastoma cells; assay: N2A cell survival (MTT) promoted by schizophrenia/psychosis plasma autoantibodies; format: cell-based; conditions: LY379268 5 μM, pertussis toxin 100 ng/mL; for effect alone on N2A cell survival: without autoantibodies; for effect on autoantibody-induced N2A pro-survival/proliferation (words): M100907 500 nM, LY294002 20 μM, 24 hours
Method: (§1) Methods: Plasma from five older adults with chronic schizophrenia and eight age-matched patients having another neuropsychiatric, immune or metabolic disorder was subjected to Protein-A affinity chromatography to obtain IgG autoantibodies. Mean neurite retraction (5 minutes) or cell survival (24 hours) was determined in mouse N2A neuroblastoma cells incubated with autoantibodies in the presence or absence of specific antagonists of the Gq/11/PLC/IP3R signaling pathway, Gi-coupled, beta-arrestin2-directed pathways, or LY379268.
N2A cell survival. MTT assay was performed 24 hours after incubation with test substances (Zimering M B, J Endocrinol Diabetes. 2018; 5(2): 10).
Serotonin 2A receptor activation leads to f3-arrestin-2-mediated desensitization and receptor internalization. However, β-arrestin-2 can also couple with diverse signaling pathways leading to enhanced cell proliferation and/or survival promotion.

[2] = tested on: mouse N2A neuroblastoma cells; assay: Acute N2A neurite retraction induced by TBI patient 5-HT2A receptor autoantibodies; format: cell-based; conditions: for effect on neurite retraction in TBI patient autoantibodies, Example 4: 10 μM Y27632, 1 μM YM25489, 1 μM U73122, 50 μM 2-APB; for % of 5-HT2A receptor Autoantibody Neurite Retraction: 60 nM TBI autoantibodies (alone 100%); for effect on TBI autoantibody-induced acute neurite retraction: M100907 250-500 nM, Y27632 10 μM, other concentrations as in Table 17; for % of autoantibody Neurite Retraction from TBI patients: 60 nM IgG of representative TBI patient
Method: Acute neurite retraction. Mouse N2A neuroblastoma cells were maintained in Dulbecco's minimal essential medium with 10% fetal calf serum. […] Neurite retraction represents average neurite length-shortening after five minutes exposure to TBI (5-HT2A receptor) autoantibodies (60-100 nM) in the presence or absence of various G-protein coupled receptor (GPCR) or signaling pathway antagonists.
A 60 nanomolar concentration of the IgG autoantibodies (e.g., 5-HT2A receptor autoantibodies) from a representative TBI patient was incubated with N2A cells in the presence or absence of the indicated concentration of the selective GPCR antagonist.
A 60 nanomolar concentration of 5-HT2A receptor autoantibodies from TBI patients was incubated with N2A cells in the presence or absence of the indicated concentration of Gq11/PLC-gamma/IP3R antagonist or RhoA/Rho kinase pathway inhibitor.
Neurovascular 5-hydroxytryptamine (serotonin) 2A receptor (5-HT2AR) autoantibodies were previously reported to function as long-acting agonists in diabetic angiopathy and subsets of major depression, Parkinson's disease or dementia. The 5-HT2A receptor is highly expressed in specific brain regions underlying cognition, perception and mood regulation. Long-lasting 5-HT2A receptor activation by circulating autoantibodies might contribute to pathophysiology via central and peripheral mechanisms. Since the risk or incidence of Parkinson's disease, depression and dementia increase following traumatic brain injury (TBI), circulating neurotoxic autoantibodies (e.g., 5HT2AR) were tested, characterized and compared with autoantibodies from TBI patients vs. diabetic subsets with or without neurodegenerative disorders. Plasma IgG autoantibodies (e.g., 5-HT2AR autoantibodies) were obtained by protein-A affinity chromatography in ten male TBI patients mean age 64 years old.

[3] = tested on: N2A mouse neuroblastoma cells; assay: Acute N2A neurite retraction induced by schizophrenia plasma autoantibodies; format: cell-based; conditions: for % of AutoAB-induced neurite retraction: 40 nM SCZ IgG (N = 2), alone 100 ± 0%; for % AutoAB-induced neurite retraction: 20 nM Pt 1 schizophrenia AutoAB; for effect on schizophrenia autoantibody-induced neurite retraction: M100907 two-hundred nanomolar, Y27632 ten micromolar, Y254890 one micromolar
Method: as §1
Acute neurite retraction assay. Percent of basal neurite length in N2A cells expressing one or more proximally-located dendrite-like process was determined after interval exposure to test substances (Zimering M B, J Endocrinol Diabetes. 2018; 5(2): 10).
A twenty nanomolar concentration of protein-A eluate fraction of plasma from Pt 1 with schizophrenia was incubated with N2A cells in the presence or absence of the indicated concentration of each Gq/11, GPCR antagonist. Results are the mean+/−SD of two experiments.
A forty nanomolar concentration of plasma autoantibodies (AutoAB) from Pt 1 or Pt, schizophrenia, was incubated in the presence or absence of the indicated concentration of RhoA/Rho kinase (ROCK) inhibitor, or individual antagonists of the Gq11/PLC/IP3R signaling pathway. […]

N2A cells = assay: N2A cell loss (MTT) induced by TBI patient autoantibodies; format: cell-based, mouse; conditions: M100907 250 nM (eight of eight patients); prazosin 850 nM (n=5); one-fiftieth dilution; 24 hours
Method: Cell survival was determined with MTT assay.
Mouse neuroblastoma cell loss. N2A cell loss was quantified using an MTT (3-(4,5-dimethylthiazol-2-yl)-2,5-diphenyltetrazolium bromide) tetrazolium reduction assay after overnight incubation with autoantibodies from TBI patients (Zimering M B, Endocrinol Diabetes Metab J. 2019 August; 3(4) pii: 118. Epub 2019 Aug. 14).

[4] = tested on: mouse N2A neuroblastoma cells; assay: Acute N2A neurite retraction induced by diabetic pathologies' IgG autoantibodies; format: cell-based; conditions: for Mean acute N2a neurite retraction (%): Pt 1 IgG one-fortieth dilution + 20 μg/mL peptide, IgG alone 100 + 0%; for effect on Patient 1 IgG autoantibody-induced N2A neurite retraction: short peptides at 20 μg/mL, pre-incubated 5 minutes, Q..N-18 dose series
Method: Methods: Plasma or serum from fifty-six older adults with (n=49) or without (n=7) type 2 diabetes was subjected to Protein-A affinity chromatography to obtain IgG autoantibodies. Binding to a synthetic 18-meric linear synthetic peptide (SEQ ID NO: 1) corresponding to the second extracellular loop of the 5-hydroxytryptamine 2A receptor was tested in a 1/40th or higher dilution of the protein-A eluates. Mean acute neurite retraction (5 minutes) or cell survival (16-24 hours) was determined in mouse N2A neuroblastoma cells incubated with IgG autoantibodies in the presence or absence of three short, linear overlapping peptides comprising the second extracellular loop of the human 5-hydroxytryptamine 2A receptor (SEQ ID NOs: 2, 3 and 4).
N2A Acute Neurite Retraction assay. Acute neurite retraction assay was performed as described in Hu G, et al. Diabetes Care 2007; 30(4): 842-847.
Epitope mapping of region within 5-HT2A receptor, linear synthetic 5-HT2A receptor peptide targeted by autoantibodies. Next an epitope analysis was performed to determine the subregion within the 5-HT2A receptor second extracellular domain that binds to the type 2 diabetes pathologies' autoantibodies. Three overlapping short peptides were synthesized (SEQ ID NOs: 2, 3, and 4). N2a cells expressing neurites were pre-incubated with each of the peptides separately (for 5 minutes) prior to the addition of Patient 1, […] hypertension IgG autoantibodies to determine which of the three peptides could compete for binding to the test diabetic pathologies' autoantibodies causing inhibition of IgG autoantibody-induced neurite retraction.
The indicated concentration of the Q . . . […] Acute N2A neurite retraction was assessed after 5 minutes.

[5] = Patient 1 DM refractory hypertension autoantibody, one sixtieth dilution, 5 minutes, 0 μg/mL peptide: 90 + 5%

With Pertussis toxin the “effect alone on N2A cell survival” value [1] was “no effect”, the “effect on autoantibody-induced N2A pro-survival/proliferation (words)” value [1] was “significantly blocked” and the “effect on autoantibody-induced N2A pro-survival/proliferation (words)” value ([1]; listed as pertussis toxin) was “blocked”.

For `COc1ccc2c(c1)CC[C@@H]1[C@@H]2CC[C@]2(C)[C@@H](NCCCCCCN3C(=O)C=CC3=O)CC[C@@H]12` [Peptide U73122], the “effect on neurite retraction in TBI patient autoantibodies, Example 4” value (shortened to “effect on neurite retraction”) [2] was “significantly blocked”, the “% of 5-HT2A receptor Autoantibody Neurite Retraction” value ([2]; inhibitor 1 μM) was 10% and the “% of AutoAB-induced neurite retraction” value ([3]; inhibitor 1 μM) was 28 ± 15%.

In the case of `NCCOB(c1ccccc1)c1ccccc1` [Peptide 2-APB], the “effect on neurite retraction” value [2] is reported as “significantly blocked”, the “% of 5-HT2A receptor Autoantibody Neurite Retraction” value ([2]; inhibitor 25 μM) is reported as 0% and the “% of AutoAB-induced neurite retraction” value ([3]; inhibitor 50 μM) is reported as 17 ± 1.9%.

For `COc1cc2nc(N3CCN(C(=O)c4ccco4)CC3)nc(N)c2cc1OC` [Prazosin], the “effect on accelerated N2A cell death/loss by TBI autoantibodies” value (N2A cells) was “much less protective effect” and the “% AutoAB-induced neurite retraction” value ([3]; antagonist 1 μM) was 72 ± 10%.

With `O=C(c1ccc(F)cc1)C1CCN(CCn2c(=O)[nH]c3ccccc3c2=O)CC1` [Ketanserin] the “effect on TBI autoantibody-induced acute neurite retraction” value [2] was “substantially blocked”, the “% of autoantibody Neurite Retraction from TBI patients” value (“% of autoantibody Neurite Retraction” below) ([2]; antagonist 1 μM) was 26% and the “% of autoantibody Neurite Retraction” value ([2]; antagonist 2 μM) was 18%. For the same compound, the “% AutoAB-induced neurite retraction” value ([3]; antagonist 500 nM) was 43 ± 11%.

“VFKEGSC [Peptide 4, short overlapping peptide of 5-HT2A receptor second extracellular loop]” was tested, and the “Mean acute N2a neurite retraction (%)” value ([4]; 5 minutes) was 88 + 13% and the “effect on Patient 1 IgG autoantibody-induced N2A neurite retraction” value [4] was “no significant effect”.

In the case of `COc1ccccc1Oc1c(NS(=O)(=O)c2ccc(C(C)(C)C)cc2)nc(-c2ncccn2)nc1OCCO` [Bosentan], the “effect on TBI autoantibody-induced acute neurite retraction” value [2] is reported as “little or no significant protective effect”, the “% of autoantibody Neurite Retraction” value ([2]; antagonist 10 μM) is reported as 80% and the “% AutoAB-induced neurite retraction” value ([3]; antagonist 10 μM) is reported as 94 ± 7%.

For `C[C@@H](N)[C@H]1CC[C@H](C(=O)Nc2ccncc2)CC1` [Peptide Y27632], the “effect on schizophrenia autoantibody-induced neurite retraction” value [3] was “completely prevented” and the “% of AutoAB-induced neurite retraction” value ([3]; inhibitor 10 μM) was 0 ± 0%.

For `N[C@@]1(C(=O)O)CO[C@H]2[C@H](C(=O)O)[C@H]21` [LY379268], the “mean level of neurite retraction in the presence of LY379268” value ([3]; 10 μM LY379268, n=12, IgG alone 52±7%) was 74±10%, the “effect alone on neurite retraction” value ([3]; 5-101.1M concentrations (so in the source), without autoantibodies) was “no effect” and the “Mean N2A neurite retraction, Pt IgG + LY379268” value ([3]; 7.5-10 μM LY379268, mean [IgG] 17 ± 6 nM, N = 12 patients, five minutes, Pt IgG alone 52 ± 7%) was 74 ±10%^∧. For the same compound, the “IgG autoantibody concentration giving 50% inhibition of N2A neurite outgrowth in the presence of LY379268” value ([3]; 10 micromolar LY379268, Pt 1 SCZ IgG, without LY379268: one microgram per milliliter (~7 nM)) was roughly 0.5 microgram per milliliter, the “IgG autoantibody concentration giving 50% inhibition of N2A neurite outgrowth in the presence of LY379268, molar” value ([3]; 10 micromolar LY379268, Pt 1 SCZ IgG, without LY379268 ~7 nM) was 3.5 nM and the “effect alone on N2A cell survival” value [1] was “no effect”. The “effect on autoantibody-induced N2A pro-survival/proliferation (words)” value [1] was “significantly blocked”.

With `CCCCc1nc(Cl)c(CO)n1Cc1ccc(-c2ccccc2-c2nn[nH]n2)cc1` [Losartan] the “% AutoAB-induced neurite retraction” value ([3]; antagonist 10 μM) was 72 ± 8%.

In the case of QDDSKVFKEGSCLLADDN [Peptide 1], the “acute N2A neurite withdrawal, autoantibody + Q...N-18 at 3 μg/mL” value [4, 5] is reported as 25 + 7%, the “acute N2A neurite withdrawal, autoantibody + Q...N-18 at 5 μg/mL” value [4, 5] is reported as 0 + 0% and the “effect on Patient 1 IgG autoantibody-induced N2A neurite retraction” value [4] is reported as “dose-dependently inhibited”. The “Half-maximal inhibition of autoantibody-induced acute neurite retraction” value ([4]; sixty nanomolar protein-A eluate of Patient 1 plasma) was 2 µg/mL and the IC50 ([4]; sixty nanomolar protein-A eluate of Patient 1 plasma, read-out: Half-maximal inhibition of autoantibody-induced acute neurite retraction, corresponding molar concentration) was roughly 1000 nM.

For `Cc1cc(NC(=O)Nc2ccc3c(ccn3C)c2)sn1` [SB204741], the “effect on TBI autoantibody-induced acute neurite retraction” value [2] was “no significant protective effect”, the “% of autoantibody Neurite Retraction” value ([2]; antagonist 1 μM) was 70% and the “% AutoAB-induced neurite retraction” value ([3]; antagonist 1 μM) was 100 ± 0%.

With “QDDSKVF [Peptide 3, short overlapping peptide of 5-HT2A receptor second extracellular loop]” the “Mean acute N2a neurite retraction (%)” value ([4]; 5 minutes) was 87 + 19% and the “effect on Patient 1 IgG autoantibody-induced N2A neurite retraction” value [4] was “no significant effect”.

With `C=C1C(=O)NC(C)C(=O)N(C)C(C)C(=O)NC(C(OC(=O)C(NC(C)=O)C(O)C(C)C)C(C)C)C(=O)N(C)C(C(C)OC)C(=O)OC(C)C(NC(C)=O)C(=O)OC(Cc2ccccc2)C(=O)N1C` (centres unmarked) [YM254890] (Ac-T[PhLac][NMeDha]A[NMeA][X1][NMeT](Me); ester 1-C; configuration not given here) the “effect on neurite retraction” value [2] was “significantly blocked”, the “% of 5-HT2A receptor Autoantibody Neurite Retraction” value ([2]; inhibitor 1 μM) was 11% and the “effect on schizophrenia autoantibody-induced neurite retraction” value [3] was “completely prevented”. The “% of AutoAB-induced neurite retraction” value ([3]; inhibitor 1 μM) was 0 ± 0%.
